Results: patent publication EP0233173A1, “1-[3-(2-Hydroxy-3-alkylamino-propoxy)-2-thienyl]-3-phenyl-1-propanones and their acid addition salts, process for their preparation and pharmaceutical compositions containing them” (Laevosan-Gesellschaft m.b.H., priority 1986, dated 1987)

Tests used:
[1] = tested on: isolierte linke Meerschweinchenvorhof; experiment: Isolated, electrically stimulated left guinea pig atrium: refractory period, contraction force and excitability; format: cell-based, Meerschweinchen; settings: for Hemmung der Kontraktionskraft / Verlängerung der RP / inhibition at 10 µM / percent prolongation of refractory period at 10 µM: concentration not given; for ERP / EKK: ratio of prolongation of RP to inhibition of contraction force; for inhibition at 100 µM / inhibition at 10 µM: Cavia porcellus, read-out: Hemmung der Kontraktionskraft
Source text: Für das Screening wurde […]. Die Vorhöfe wurden durch Rechteckimpulse ( ∼ 3 msec) mit einer Basisfrequenz von 2 Hz […]. Nun wurde mittels eines Extrastimulus, dessen […] und ohne Verbindung bestimmt. […] Um zwischen Na-antagonistischen und anderen Wirkungen unterscheiden zu […] RP, die Kontraktionskraft und die Erregbarkeit des […] untersucht.

[2] = tested on: teilweise depolarisierten Papillarmuskel; experiment: Partially depolarised papillary muscle (extracellular potassium raised about 4-fold): mechanism of the negative inotropic effect; format: cell-based; settings: partially depolarised membranes; cause of the negative inotropic effect; result in words
Source text: Weitere Untersuchungen wurden am teilweise depolarisierten Papillarmuskel durchgeführt, um zwischen der negativ inotropen Wirkung, welche auf Blockade der schnellen Na⁺-Kanälchen und einer, die auf anderen Mechanismen beruht, zu unterscheiden. Im Versuch wurde die teilweise Depolarisation der Herzmuskelzellmembran durch Erhöhung der extrazellulären Kalium-Konzentration auf das ca. 4-fache erreicht.

[3] = 10 µM according to b47, atrium stimulated at 2 Hz, mean ± spread
[4] = 100 µM, atrium stimulated at 2 Hz, mean ± spread, read-out: Verlängerung der RP
[5] = 100 µM, atrium stimulated at 2 Hz, mean ± spread
[6] = 10 µM according to b47, atrium stimulated at 2 Hz, mean ± spread, read-out: Verlängerung der RP

Row | Compound | Hemmung der Kontraktionskraft [1, 3] | Verlängerung der RP [1, 3] | ERP / EKK ([1]; 10 µM according to b47) | inhibition at 100 µM [1, 5] [%] | inhibition at 10 µM [1, 3] [%] | percent prolongation of refractory period at 10 µM [1, 6] [%] | also measured
1 | 1-[3-(2-Hydroxy-3-(4-methyl)-1-piperidinyl)-propoxy)-4-methyl-2-thienyl]-3-phenyl-1-propanon-hydrochlorid [LG 84-6-11] | 59 ± 3,3% | 157 ± 10,0% | 2,7 |  |  |  | 
2 | 1-[4-Methyl-3-(2-hydroxy-3-sek.butylaminopropoxy)-2-thienyl]-3-phenyl-1-propanon-chlorhydrat [LG 84-6-08] | 65 ± 4,0% | 129 ± 11,0% | 2,0 |  |  |  | 
3 | C=C[C@H]1CN2CC[C@H]1C[C@@H]2[C@@H](O)c1ccnc2ccc(OC)cc12 [Chinidin, reference compound] |  |  |  | 77 ± 4 |  |  | activation at 100 µM [1, 4]: > 161%
4 | CCC(C)(C)NCC(O)COc1c(C)csc1C(=O)CCc1ccccc1.Cl (stereo not drawn) [LG 84-6-07, 1-[3-(2-Hydroxy-3-tert.pentylaminopropoxy)-4-methyl-2-thienyl]-3-phenyl-1-propanon-hydrochlorid] |  |  | 1,3 |  | 52 ± 4 | 66 ± 13 | Verhältnis zwischen der Verlängerung der Refraktärperiode und der gleichzeitig beobachteten Kontraktionskraftsenkung ([1]; comparison among the tested antiarrhythmics, result in words): am größten; Dosen für Verlängerung der Refraktärperiode gegenüber Senkung der Kontraktionskraft ([1]; doses for prolonging the refractory period compared with doses for lowering contraction force, result in words): mit wesentlich kleineren Dosen erzielt; Erregbarkeit des Vorhofes ([1]; result in words): Verminderung der Erregbarkeit des Vorhofes; negativ incorope Komponente [2]: nur durch den Na⁺-Antagonismus hervogerufen
5 | Cc1csc(C(=O)CCc2ccccc2)c1OCC(O)CNCC(C)(C)C.Cl (stereo not drawn) [LG 84-6-09, 1-[3-(2-Hydroxy-3-(2,2-dimethylpropylamino)-propoxy)-4-methyl-2-thienyl]-3-phenyl-1-propanon-hydrochlorid] |  |  | 3,0 |  | 37 ± 4.5 | 112 ± 18 | 
6 | CCN(CC)CC(=O)Nc1c(C)cccc1C [Lidocain, reference compound] |  |  |  | 17 ± 5 |  |  | percent prolongation of refractory period at 100 µM [1, 4]: 63 ± 6%; ERP / EKK ([1]; 100 µM): 3,7
